Among the data in patent EP0554004A2, “Cephem compounds and antibacterial agents” (KATAYAMA SEIYAKUSYO CO. Ltd., priority 1992, dated 1993) are MIC50, MIC90 and MIC values, retold here.

Assay [1] has as its system clinically isolated MRSA. The assay can be described thus: Antibacterial potency against clinically isolated MRSA (Test Example 2). Format: cell-based, methicillin-resistant Staphylococcus aureus. As to conditions: Staphylococcus aureus, 52 strains of clinically isolated MRSA. How it is done: A test on the antibacterial potency against clinically isolated MRSA was conducted in the following way.
52 strains of clinically isolated MRSA were used, and MIC was determined for each of the strains according to the standard method of the Japan Chemotherapical Society as in Test Example 1. The minimum growth inhibitory concentration which inhibited growth of 50% of the strains tested was expressed as MIC50 (µg/ml), and the minimum growth inhibitory concentration which inhibited growth of 90% of the strains was expressed as MIC90 (µg/ml).
In this test, FMOX (flomoxef), IPM/CS (imipenem/cilastatin), CMZ (cefmetazole), MINO (minocycline) and DMPPC (methicillin) were used as control agents.

Assay [2] concerns Bacillus subtilis ATCC 6633. The assay can be described thus: MIC against standard strains (Test Example 1). Format: cell-based. To be noted: ATCC6633, Muller-Hinton agar, 37°C overnight. How it is done: (§1) By using each test strain cultured overnight at 37°C in a Muller-Hinton broth, there was prepared a bacterial solution with a bacterial cell population of 1 x 10^6 CFU/mi of the same bouillon. The bacterial solution was inoculated into the Muller-Hinton agar media each containing respectively one test agent and, after overnight incubation at 37°C, the minimum concentration that inhibited growth of the bacteria was determined and shown as MIC also in Table 1.
(§2) Staphylococcus aureus 167 and Staphylococcus aureus 195 used in the test were MRSA. CTM (cefotiam) and FMOX (flomoxef) were used as control agents.

For assay [3], the system named is Staphylococcus aureus 209P JC-1. The assay can be described thus: MIC against standard strains (Test Example 1). Format: cell-based. As to conditions: Muller-Hinton agar, 37°C overnight. How it is done:
as §1, §2

Assay [4] concerns Micrococcus luteus ATCC 9341. The assay can be described thus: MIC against standard strains (Test Example 1). Format: cell-based. As to conditions: ATCC9341, Muller-Hinton agar, 37°C overnight. How it is done:
as §1, §2

Assay [5] relates to Enterobacter cloacae ATCC 13407. The assay can be described thus: MIC against standard strains (Test Example 1). Format: cell-based. As to conditions: ATCC13407, Muller-Hinton agar, 37°C overnight. How it is done:
as §1, §2

Assay [6] deals with Klebsiella pneumoniae IFO 3317. The assay can be described thus: MIC against standard strains (Test Example 1). Format: cell-based. To be noted: IFO3317, Muller-Hinton agar, 37°C overnight. As for the experimental part:
as §1, §2

Assay [7] has as its system Morganella morganii IFO 3848. The assay can be described thus: MIC against standard strains (Test Example 1). Format: cell-based. To be noted: IFO3848, Muller-Hinton agar, 37°C overnight. How it is done:
as §1, §2

In assay [8] the test system is Staphylococcus aureus Smith. The assay can be described thus: MIC against standard strains (Test Example 1). Format: cell-based. As to conditions: Muller-Hinton agar, 37°C overnight. How it is done: as §1, §2
The subject of assay [9] is Escherichia coli CSH2 (RE45). The assay can be described thus: MIC against standard strains (Test Example 1). Format: cell-based. As for the experimental part: as §1, §2
Assay [10] concerns Klebsiella pneumoniae No. 42. The assay can be described thus: MIC against standard strains (Test Example 1). Format: cell-based. To be noted: Muller-Hinton agar, 37°C overnight. How it is done:
as §1, §2

For assay [11], the system named is Proteus mirabilis IFO 3849. The assay can be described thus: MIC against standard strains (Test Example 1). Format: cell-based. As to conditions: IFO3849, Muller-Hinton agar, 37°C overnight. How it is done:
as §1, §2

Assay [12] deals with Psuedomonas aeruginosa IFO 3445. The assay can be described thus: MIC against standard strains (Test Example 1). Format: cell-based. To be noted: Muller-Hinton agar, 37°C overnight. How it is done:
as §1, §2

In assay [13] the test system is Pseudomonas aeruginosa NCTC 10490. The assay can be described thus: MIC against standard strains (Test Example 1). Format: cell-based. To be noted: NCTC10490, Muller-Hinton agar, 37°C overnight. As for the experimental part:
as §1, §2

In assay [14] the test system is Escherichia coli CSH2 (RK1). The assay can be described thus: MIC against standard strains (Test Example 1). Format: cell-based. How it is done:
as §1, §2

For assay [15], the system named is Staphylococcus aureus 195. The assay can be described thus: MIC against standard strains (Test Example 1). Format: cell-based. As to conditions: Staphylococcus aureus 195 (MRSA); Muller-Hinton agar, 37°C overnight. How it is done: as §1, §2
Assay [16] concerns Staphylococcus epidermidis IAM 1296. The assay can be described thus: MIC against standard strains (Test Example 1). Format: cell-based. As to conditions: IAM1296, Muller-Hinton agar, 37°C overnight. How it is done:
as §1, §2

The test system of assay [17] is Citrobacter freundii ATCC 8090. The assay can be described thus: MIC against standard strains (Test Example 1). Format: cell-based. As to conditions: ATCC8090, Muller-Hinton agar, 37°C overnight. How it is done:
as §1, §2

Assay [18] concerns Staphylococcus aureus 167. The assay can be described thus: MIC against standard strains (Test Example 1). As to conditions: Staphylococcus aureus 167 (MRSA); Muller-Hinton agar, 37°C overnight. Format: cell-based. How it is done: as §1, §2
Assay [19] deals with Escherichia coli NIHJ JC-2. The assay can be described thus: MIC against standard strains (Test Example 1). Format: cell-based. To be noted: NIHJJC2, Muller-Hinton agar, 37°C overnight. As for the experimental part: as §1, §2
Assay [20] has as its system Serratia marcescens IAM 1184. The assay can be described thus: MIC against standard strains (Test Example 1). Format: cell-based. As to conditions: IAM1184, Muller-Hinton agar, 37°C overnight. As for the experimental part: as §1, §2
Assay [21] concerns Proteus vulgalis OX-19. The assay can be described thus: MIC against standard strains (Test Example 1). Format: cell-based. As to conditions: Muller-Hinton agar, 37°C overnight. As for the experimental part:
as §1, §2

As to `NC(=O)Nc1ccc[n+](CC2=C(C(=O)[O-])N3C(=O)[C@@H](NC(=O)/C(=N\O)c4csc(N)n4)[C@H]3SC2)c1` [Compound (4), 7β-[2-(2-aminothiazol-4-yl)-2-syn-hydroxyiminoacetamido]-3-[(3-ureido-1-pyridinio)methyl]-3-cephem-4-carboxylic acid chloride], in assay [1] (concentration inhibiting growth of 50% of the strains (Test Example 2)), the MIC50 came out at 2.17 µg/mL. Moreover, the MIC90 in assay [1] (concentration inhibiting growth of 90% of the strains (Test Example 2)) is 6.16 µg/mL. Moreover, the minimal inhibitory concentration (MIC) in assay [2] stood at 0.2 µg/mL; in assay [3] it was 0.1 µg/mL; in [4], 0.39 µg/mL; in assay [5], 0.39 µg/mL; in assay [6], 0.1 µg/mL; in assay [7] it was 0.05 µg/mL. In addition, the MIC in assay [8] was found to be 0.2 µg/mL; in assay [9], 0.39 µg/mL; in assay [10], 0.39 µg/mL; in assay [11] it was 0.1 µg/mL; in assay [12], 12.5 µg/mL; in assay [13], 1.56 µg/mL. The minimal inhibitory concentration (MIC) in [14] stood at 0.78 µg/mL; in assay [15], 3.13 µg/mL; in assay [16], 0.05 µg/mL; in [17] it was 0.1 µg/mL; in assay [18], 12.5 µg/mL; in assay [19] it was 0.1 µg/mL. The minimum inhibitory concentration (MIC) in assay [20] is 0.1 µg/mL; in assay [21] it was 0.78 µg/mL.
